target: Human DAAO (Homo sapiens, UniProt P14920); experiment: D-Amino Acid Oxidase enzyme assay (D-serine, horseradish peroxidase/Amplex Red coupled fluorescence); format: biochemical; settings: D-serine 5 mM, pH 7.4
Experimental: DAAO enzyme activity was measured using the substrate D-serine at its Michaelis-Menton Km of 5 mM. The rate of oxidation is measured as a rate of production of hydrogen peroxide, which was detected using the enzyme horseradish peroxidase (Sigma cat. No. P-8375). This coupled reaction uses the enzyme substrate Amplex Red (Molecular Probes), which is converted to the fluorescent reaction product, resorufin (excitation 530-560 nm; emission ˜590 nm). Although DAAO has a higher pH optimum, all reagents were prepared in 50 mM sodium phosphate buffer at pH 7.4 and inhibition curves were generated at this pH.
The final concentrations of components in 200 μl total volume per well (black clear-bottom 96-well plate, Costar) were:
(a) Horseradish peroxidase: 4 Units per mL
(d) Amplex Red reagent: 50 uM
The reactions were initiated by addition of DAAO enzyme and the fluorescence was monitored. H2O2 was added at 16 uM final concentration to a control well on each plate to test for compound interference with a coupled enzyme. Inhibition curves were generated in the presence of varying concentrations of the inhibitor and IC50 values were calculated for each inhibitor.

Sequence of Human DAAO (P14920 whole entry): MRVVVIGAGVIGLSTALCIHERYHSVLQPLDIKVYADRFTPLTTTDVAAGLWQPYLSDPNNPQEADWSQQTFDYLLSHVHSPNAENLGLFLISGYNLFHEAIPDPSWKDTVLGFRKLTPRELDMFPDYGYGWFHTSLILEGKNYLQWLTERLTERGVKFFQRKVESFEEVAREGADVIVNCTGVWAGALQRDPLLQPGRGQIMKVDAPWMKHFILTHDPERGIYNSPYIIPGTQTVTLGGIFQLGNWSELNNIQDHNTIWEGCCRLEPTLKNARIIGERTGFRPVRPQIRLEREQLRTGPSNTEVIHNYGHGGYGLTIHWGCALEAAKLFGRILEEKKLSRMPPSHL

Compound	IC50 [µM]
CC(C)c1ccc(CC2CCc3[nH]c(C(=O)O)cc32)cc1 (stereo not shown) [Compound 33, 4-(4-isopropylbenzyl)-1,4,5,6-tetrahydrocyclopenta[b]pyrrole-2-carboxylic acid]	≤ 1
O=C(O)c1cc2c([nH]1)C(CCc1ccccc1)CC2 (stereo not shown) [Compound 27, 6-phenethyl-1,4,5,6-tetrahydrocyclopenta[b]pyrrole-2-carboxylic acid]	≤ 1
O=C(O)c1cc2c([nH]1)CCC2CC1CCCCC1 (stereo not shown) [Compound 12, 4-(cyclohexylmethyl)-1,4,5,6-tetrahydrocyclopenta[b]pyrrole-2-carboxylic acid]	≤ 1
COc1ccc(CCC2CCc3[nH]c(C(=O)O)cc32)cc1 (stereo not shown) [Compound 34, 4-(4-methoxyphenethyl)-1,4,5,6-tetrahydrocyclopenta[b]pyrrole-2-carboxylic acid]	≤ 100
O=C(O)c1cc2c([nH]1)CCC2Cc1cc(F)cc(Cl)c1 (stereo not shown) [Compound 55, 4-(3-chloro-5-fluorobenzyl)-1,4,5,6-tetrahydrocyclopenta[b]pyrrole-2-carboxylic acid]	≤ 0.1
O=C(O)c1cc2c([nH]1)CCC2CCc1ccccc1 (single isomer, unassigned) [Compound 20, 4-phenethyl-1,4,5,6-tetrahydrocyclopenta[b]pyrrole-2-carboxylic acid]	≤ 100
O=C(O)c1cc2c([nH]1)CCC2Cc1ccc(F)c(F)c1 (single isomer, unassigned) [Compound 43, 4-(3,4-difluorobenzyl)-1,4,5,6-tetrahydrocyclopenta[b]pyrrole-2-carboxylic acid]	≤ 100
Cc1cc(F)ccc1CC1CCc2[nH]c(C(=O)O)cc21 (single isomer, unassigned) [Compound 52, 4-(4-fluoro-2-methylbenzyl)-1,4,5,6-tetrahydrocyclopenta[b]pyrrole-2-carboxylic acid]	≤ 100
CC1CCc2[nH]c(C(=O)O)cc21 (racemic) [Compound 4, 4-methyl-1,4,5,6-tetrahydrocyclopenta[b]pyrrole-2-carboxylic acid]	≤ 1
COc1cccc(CC2CCc3[nH]c(C(=O)O)cc32)c1 (single isomer, unassigned) [Compound 67, 4-(3-methoxybenzyl)-1,4,5,6-tetrahydrocyclopenta[b]pyrrole-2-carboxylic acid]	≤ 100
O=C(O)c1cc2c([nH]1)CCC2CCc1ccccc1 (single isomer, unassigned) [Compound 19, 4-phenethyl-1,4,5,6-tetrahydrocyclopenta[b]pyrrole-2-carboxylic acid]	≤ 1
Cc1cc(F)ccc1CC1CCc2[nH]c(C(=O)O)cc21 (racemic) [Compound 51, 4-(4-fluoro-2-methylbenzyl)-1,4,5,6-tetrahydrocyclopenta[b]pyrrole-2-carboxylic acid]	≤ 0.1
CC(C)(CC1CCc2[nH]c(C(=O)O)cc21)c1ccccc1 (stereo not shown) [Compound 35, 4-(2-methyl-2-phenylpropyl)-1,4,5,6-tetrahydrocyclopenta[b]pyrrole-2-carboxylic acid]	≤ 100
O=C(O)c1cc2c([nH]1)CCC2Cc1cccc(Cl)c1 (stereo not shown) [Compound 56, 4-(3-chlorobenzyl)-1,4,5,6-tetrahydrocyclopenta[b]pyrrole-2-carboxylic acid]	≤ 0.1
CC(C)CC1CCc2[nH]c(C(=O)O)cc21 (stereo not shown) [Compound 11, 4-isobutyl-1,4,5,6-tetrahydrocyclopenta[b]pyrrole-2-carboxylic acid]	≤ 1
O=C(O)c1cc2c([nH]1)CCC2Cc1ccc(F)cc1 (single isomer, unassigned) [Compound 41, 4-(4-fluorobenzyl)-1,4,5,6-tetrahydrocyclopenta[b]pyrrole-2-carboxylic acid]	≤ 1
O=C(O)c1cc2c([nH]1)CC(F)(F)C2 [Compound 21, 5,5-difluoro-1,4,5,6-tetrahydrocyclopenta[b]pyrrole-2-carboxylic acid]	≤ 1
CC(C)C1CCc2[nH]c(C(=O)O)cc21 (stereo not shown) [Compound 10, 4-isopropyl-1,4,5,6-tetrahydrocyclopenta[b]pyrrole-2-carboxylic acid]	≤ 1
CC1CCc2[nH]c(C(=O)O)cc21 (single isomer, unassigned) [Compound 6, 4-methyl-1,4,5,6-tetrahydrocyclopenta[b]pyrrole-2-carboxylic acid]	≤ 100
COc1ccc(CC2CCc3[nH]c(C(=O)O)cc32)cc1OC (stereo not shown) [Compound 69, 4-(3,4-dimethoxybenzyl)-1,4,5,6-tetrahydrocyclopenta[b]pyrrole-2-carboxylic acid]	≤ 1
O=C(O)c1cc2c([nH]1)C(CCc1ccccc1)CC2 (single isomer, unassigned) [Compound 28, 6-phenethyl-1,4,5,6-tetrahydrocyclopenta[b]pyrrole-2-carboxylic acid]	≤ 1

More lines, now with the values ahead:

IC50 [µM]	Compound
≤ 1	O=C(O)c1cc2c([nH]1)CCC2Cc1cccc(-c2ccc(C(F)(F)F)cc2)c1 (stereo not shown) [Compound 84, 4-((4′-(trifluoromethyl)biphenyl-3-yl)methyl)-1,4,5,6-tetrahydrocyclopenta[b]pyrrole-2-carboxylic acid]
≤ 0.1	O=C(O)c1cc2c([nH]1)CCC2c1cccc(Br)c1 (stereo not shown) [Compound 103, 4-(3-bromophenyl)-1,4,5,6-tetrahydrocyclopenta[b]pyrrole-2-carboxylic acid]
≤ 0.1	O=C(O)c1cc2c([nH]1)C(Cc1cccc(Br)c1)CC2 (single isomer, unassigned) [Compound 127, 6-(3-bromobenzyl)-1,4,5,6-tetrahydrocyclopenta[b]pyrrole-2-carboxylic acid]
≤ 100	O=C(O)c1cc2c([nH]1)CCC2Cc1cccc(-c2ccc[nH]2)c1 (single isomer, unassigned) [Compound 92, 4-(3-(1H-pyrrol-2-yl)benzyl)-1,4,5,6-tetrahydrocyclopenta[b]pyrrole-2-carboxylic acid]
≤ 1	Cc1ccc(CC2CCc3[nH]c(C(=O)O)cc32)cc1C (stereo not shown) [Compound 71, 4-(3,4-dimethylbenzyl)-1,4,5,6-tetrahydrocyclopenta[b]pyrrole-2-carboxylic acid]
≤ 100	O=C(O)c1cc2c([nH]1)CCC2NCc1ccc(Cl)cc1 (stereo not shown) [Compound 108, 4-(4-chlorobenzylamino)-1,4,5,6-tetrahydrocyclopenta[b]pyrrole-2-carboxylic acid]
≤ 100	COC1c2cc(C(=O)O)[nH]c2CC1(F)F (stereo not shown) [Compound 148, 5,5-difluoro-4-methoxy-1,4,5,6-tetrahydrocyclopenta[b]pyrrole-2-carboxylic acid]
≤ 0.1	C#Cc1cccc(CC2CCc3[nH]c(C(=O)O)cc32)c1 (stereo not shown) [Compound 74, 4-(3-ethynylbenzyl)-1,4,5,6-tetrahydrocyclopenta[b]pyrrole-2-carboxylic acid]
≤ 1	O=C(O)c1cc2c([nH]1)C(Cc1cccc(Cl)c1)CC2 (single isomer, unassigned) [Compound 122, 6-(3-chlorobenzyl)-1,4,5,6-tetrahydrocyclopenta[b]pyrrole-2-carboxylic acid]
≤ 100	O=C(O)c1cc2c([nH]1)CCC2c1cc(F)cc(F)c1 (single isomer, unassigned) [Compound 99, 4-(3,5-difluorophenyl)-1,4,5,6-tetrahydrocyclopenta[b]pyrrole-2-carboxylic acid]
≤ 0.1	O=C(O)c1cc2c([nH]1)CCC2c1cccc(Cl)c1 (stereo not shown) [Compound 102, 4-(3-chlorophenyl)-1,4,5,6-tetrahydrocyclopenta[b]pyrrole-2-carboxylic acid]
≤ 1	O=C(O)c1cc2c([nH]1)CCC2Cc1cccc(-c2ccccc2)c1 (stereo not shown) [Compound 82, 4-(biphenyl-3-ylmethyl)-1,4,5,6-tetrahydrocyclopenta[b]pyrrole-2-carboxylic acid]
≤ 1	O=C(O)c1[nH]c2c(c1Br)C(CCc1ccccc1)CC2 (stereo not shown) [Compound 147, 3-bromo-4-phenethyl-1,4,5,6-tetrahydrocyclopenta[b]pyrrole-2-carboxylic acid]
≤ 100	O=C(O)c1cc2c([nH]1)C[C@@H]1[C@@H](c3ccccc3)[C@H]21 (racemic) [Compound 144, ±(1R,1aR,5aR)-1-phenyl-1a,4,5,5a-tetrahydro-1H-4-aza-cyclopropa[α]pentalene-3-carboxylic acid]
≤ 0.1	O=C(O)c1cc2c([nH]1)CCC2c1cccc(F)c1 (racemic) [Compound 94, 4-(3-fluorophenyl)-1,4,5,6-tetrahydrocyclopenta[b]pyrrole-2-carboxylic acid]
≤ 1	O=C(O)c1cc2c([nH]1)CCC2Cc1cccc(C2CCOC2)c1 (stereo not shown) [Compound 90, 4-(3-(tetrahydrofuran-3-yl)benzyl)-1,4,5,6-tetrahydrocyclopenta[b]pyrrole-2-carboxylic acid]
≤ 1	O=C(O)c1cc2c([nH]1)CCC2Cc1ccc2ccccc2c1 (single isomer, unassigned) [Compound 79, 4-(naphthalen-2-ylmethyl)-1,4,5,6-tetrahydrocyclopenta[b]pyrrole-2-carboxylic acid]
≤ 100	COc1cccc(CC2CCc3cc(C(=O)O)[nH]c32)c1 (single isomer, unassigned) [Compound 130, 6-(3-methoxybenzyl)-1,4,5,6-tetrahydrocyclopenta[b]pyrrole-2-carboxylic acid]
≤ 1	O=C(O)c1cc2c([nH]1)C(c1cccc(Cl)c1)CC2 (stereo not shown) [Compound 114, 6-(3-chlorophenyl)-1,4,5,6-tetrahydrocyclopenta[b]pyrrole-2-carboxylic acid]
